Consider ten compounds from patent US4788306A, “Fluorooxirane carboxylates as hypoglycemic agents” (American Home Products Corporation, priority 1987, dated 1988).

In data set [1] the target is T1, carnitine palmitoyl transferase in liver mitochondria (Rattus norvegicus, UniProt P32198).
T1 construct: from tissue; host or cells: rat liver mitochondria
T1 sequence (P32198 1-773): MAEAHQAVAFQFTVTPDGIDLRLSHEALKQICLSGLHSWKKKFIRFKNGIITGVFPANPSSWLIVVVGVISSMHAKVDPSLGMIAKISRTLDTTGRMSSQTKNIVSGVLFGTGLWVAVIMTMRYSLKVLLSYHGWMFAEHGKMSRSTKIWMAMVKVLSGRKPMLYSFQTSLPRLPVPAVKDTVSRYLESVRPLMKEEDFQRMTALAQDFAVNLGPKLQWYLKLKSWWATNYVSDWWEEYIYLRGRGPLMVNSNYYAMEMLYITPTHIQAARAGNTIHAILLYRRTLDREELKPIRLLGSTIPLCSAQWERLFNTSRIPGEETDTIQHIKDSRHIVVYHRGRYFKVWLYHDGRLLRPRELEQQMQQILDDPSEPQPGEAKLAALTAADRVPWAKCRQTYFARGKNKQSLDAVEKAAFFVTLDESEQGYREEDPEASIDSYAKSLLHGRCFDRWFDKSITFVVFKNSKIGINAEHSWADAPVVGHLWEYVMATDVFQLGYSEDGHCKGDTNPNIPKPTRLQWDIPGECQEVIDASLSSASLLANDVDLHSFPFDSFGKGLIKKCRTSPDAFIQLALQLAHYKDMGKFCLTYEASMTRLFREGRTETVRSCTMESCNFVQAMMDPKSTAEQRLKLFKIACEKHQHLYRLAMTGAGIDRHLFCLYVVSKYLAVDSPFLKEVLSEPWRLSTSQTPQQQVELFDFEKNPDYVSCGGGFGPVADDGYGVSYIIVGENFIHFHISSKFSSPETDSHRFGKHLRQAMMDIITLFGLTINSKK
Nature of the data set: Inhibition of carnitine palmitoyl transferase activity in liver mitochondria. Format: biochemical. The conditions noted are these: for inhibition at 0.05 µM / inhibition at 0.1 µM / inhibition at 0.5 µM / inhibition at 1 µM / inhibition at 2 µM / inhibition at 5 µM / inhibition at 10 µM / inhibition at 50 µM: read-out: % Inhibition ± SEM, liver; for inhibition at 0.1 µM: 0.10 μM; for inhibition at 0.5 µM: 0.50 μM. On the procedure: (§1) The following assay measures the ability of the compounds of the invention to inhibit the activity of carnitine palmitoyl transferase in liver and heart mitochondria.
(§2) According to this procedure, the following steps are carried out:
(§3) (1) Isolation of Mitochondria
(§4) (a) liver mitochondria: 5 g of liver from a 300 g rat is minced, homogenized with 40 ml (30 ml for heart mitochondria) of 0.25M sucrose, 10 mM Tris and 1 mM EDTA, pH 7.4 and centrifuged at 600 xg for 15 minutes. The decanted supernatant is centrifuged at 7,900 xg for 15 minutes. The resultant pellet is resuspended in 20 ml total (16 ml total for the heart mitochondria) of sucrose buffer and centrifuged 7,900 xg for 15 minutes. The pellet is then resuspended in 30 ml total (11 ml for heart mitochondria) of 0.15M KCl, 5 mM Tris.Cl, pH 7.4 and this is used as the enzyme source.
(§5) To 28 3 ml glass test tubes is added 350 μl of the following mixture:
(§6) 81 mg of FFA free albumin
(§7) 1.5 ml of 0.5 mM palmitoyl CoA
(§8) Then there are added to these test tubes 50 μl of water, 50 μl of 10 mM carnitine and 0.25 μCi^3 H-carnitine, and the tubes are placed in a 30° C. water bath.
(§9) (3) Mitochondrial Suspensions
(§10) Twelve plastic incubation tubes are prepared by adding the following to the tubes:
(§11) To each of the tubes, except 1 and 3, are added 30 μl of 200 mM ATP, 20 μl of 333 mM MgCl2 and 50 μl of 1.5 mg/ml CoA. 800 μl of mitochondria from step (1) above are added to each tube, and the tubes are incubated at room temperature for 20 minutes. The tubes are centrifuged at 7,900 xg for 3 minutes and the resultant pellet is resuspended in 1 ml chilled 150 mM KCl, 5 mM TRIS, pH 7.4.
(§12) 50 μl of mitochondrial suspension from step (3) above is added to the 28 tubes from step (2) as follows: (at 15 second intervals):
(§13) The tubes are incubated for 5 minutes at 30° C. and then there is added to each tube, at 15-second intervals, 50 μl of concentrated HCl, 1.45 ml water and 1 ml of n-butanol. The tubes are mixed, chilled in ice for 20 minutes and then centrifuged for 10 minutes at 2500 rpm to clarify the layers. Thereafter, 500 μl of the upper butanol layer of each tube is pipetted into 100 μl of water and 500 μl butanol saturated water, the tubes are mixed and chilled in ice for 20 minutes and centrifuged again for 10 minutes at 2500 rpm. 200 μl of the butanol layer of each tube is pipetted into a scintillation vial to which is added 10 ml of Aquasol, and the samples are counted in a Packard Tri-Carb Scintillation Counter.
(§14) The results are used to calculated the percentage of inhibition of carnitine palmitoyl transferase by the compounds tested.
When tested in the above assay using liver mitochondria alone, other compounds of the invention give the following results.

For data set [2], the target named is T2, carnitine palmitoyl transferase in heart mitochondria (Rattus norvegicus, UniProt Q63704).
T2 construct: to obtain a heart mitochondria fraction; from tissue; host or cells: rat heart mitochondria
T2 sequence (Q63704 1-772): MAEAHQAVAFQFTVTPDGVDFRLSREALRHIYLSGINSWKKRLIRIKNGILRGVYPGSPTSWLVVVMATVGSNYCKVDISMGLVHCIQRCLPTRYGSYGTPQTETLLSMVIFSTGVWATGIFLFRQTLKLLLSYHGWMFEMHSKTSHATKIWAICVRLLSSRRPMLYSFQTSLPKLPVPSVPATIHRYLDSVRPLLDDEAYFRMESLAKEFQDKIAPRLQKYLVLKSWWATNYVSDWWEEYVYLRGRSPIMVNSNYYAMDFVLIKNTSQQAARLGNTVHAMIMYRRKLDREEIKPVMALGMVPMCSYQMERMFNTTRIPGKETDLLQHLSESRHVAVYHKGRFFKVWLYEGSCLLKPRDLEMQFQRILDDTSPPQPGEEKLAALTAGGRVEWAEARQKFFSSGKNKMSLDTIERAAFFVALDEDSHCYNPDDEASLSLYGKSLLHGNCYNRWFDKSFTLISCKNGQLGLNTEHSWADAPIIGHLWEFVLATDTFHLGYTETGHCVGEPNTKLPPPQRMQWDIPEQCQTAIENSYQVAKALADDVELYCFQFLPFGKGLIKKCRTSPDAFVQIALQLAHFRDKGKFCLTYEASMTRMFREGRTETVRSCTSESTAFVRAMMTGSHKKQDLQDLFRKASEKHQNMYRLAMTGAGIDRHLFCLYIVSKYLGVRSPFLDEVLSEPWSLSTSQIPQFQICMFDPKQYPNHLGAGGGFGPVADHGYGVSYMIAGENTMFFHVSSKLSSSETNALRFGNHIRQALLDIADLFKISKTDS
Nature of the data set: Inhibition of carnitine palmitoyl transferase activity in heart mitochondria. To be noted: for inhibition at 0.1 µM: 0.10 μM; for inhibition at 0.5 µM: 0.50 μM. The data set is classed as biochemical. On the procedure:
as §1, §2, §3, §4
(b) heart mitochondria: four rat hearts are processed as described in step (a) above to obtain a heart mitochondria fraction.
as §5, §6, §7, §8, §9, §10, §11, §12, §13, §14

For data set [3] the following is noted: Bachmann et al. 1984, Lee et al. 1982 and 1985; cited from earlier work.
[4] abbreviates: Table 2 (Example 10), liver mitochondria alone, read-out: % Inhibition of Hepatic CPTase, IC50.
[5] abbreviates: Table 1, liver mitochondria, ± SEM, read-out: IC50, liver.
Setting [6] is: read-out: % Inhibition ± SEM, heart.
Where [7] appears, read: 50.0 μM, read-out: % Inhibition ± SEM, heart.
Where [8] appears, read: Example 9, second (untitled) table, liver mitochondria, read-out: Inhibition of Hepatic CPTase, IC50.
[9] abbreviates: at 50 μM, Example 9, second (untitled) table, read-out: % Maximal Inhibition of Cardiac CTPase at 50 μM.

Structures can show the parent of a compound that is named as a salt. Where two headings read alike, the source gives them in different places.

Broadly, the IC50 is the point on the concentration scale where inhibition reaches its midpoint. Regarding `COC(=O)C1(C(F)CCCCCOc2ccc(Cl)cc2)CO1` (single isomer, unassigned) [3 (isomer A), 2-[6-(4-chlorophenoxy)-1-fluorohexyl]-2-oxiranecarboxylic acid methyl ester], the IC50 in data set [1] (setting [4]) was found to be 850 nM.

Turning to `COC(=O)C1(C(F)CCCCCOc2ccc(Cl)cc2)CO1` (single isomer, unassigned) [3 (isomer B), 2-[6-(4-Chlorophenoxy)-1-fluorohexyl]-2-oxiranecarboxylic acid methyl ester], the IC50 in data set [1] (setting [4]) is 1750 nM.

As to `COC(=O)C1(C(F)CCCCc2ccccc2)CO1` (single isomer, unassigned) [Example 1 (isomer A), 2-(1-Fluoro-5-phenylpentyl)-2-oxiranecarboxylic acid methyl ester], the IC50 in data set [1] (setting [4]) is 1080 nM.

As a reminder, the inhibition is the share of the control response that was lost under treatment. With `COC(=O)C1(C(F)CCCCOc2ccc(Cl)cc2)CO1` (single isomer, unassigned) [Example 2 (isomer A), 2-[5-(4-Chlorophenoxy)-1-fluoropentyl]-2-oxiranecarboxylic acid methyl ester], in data set [1], the inhibition at 0.05 µM is 5 ± 3%, the inhibition at 0.1 µM stood at 11 ± 5%, the inhibition at 0.5 µM was found to be 23 ± 7% and the inhibition at 1 µM was determined as 61 ± 9%. Besides, in data set [1], the inhibition at 2 µM was 78 ± 7%, the inhibition at 5 µM was found to be 79 ± 8%, the inhibition at 10 µM came to 80 ± 9% and the inhibition at 50 µM stood at 82 ± 10%. In data set [1] (setting [5]), the IC50 came to 970 ± 180 nM. In addition, in data set [1] (setting [4]), the IC50 came out at 970 nM. Also, in data set [2] (setting [6]), the inhibition at 0.05 µM was found to be 6 ± 5%, the inhibition at 0.1 µM is 17 ± 5%, the inhibition at 0.5 µM is 18 ± 4% and the inhibition at 1 µM was 34 ± 3%. Moreover, in data set [2] (setting [6]), the inhibition at 2 µM stood at 35 ± 3%, the inhibition at 5 µM came to 40 ± 4% and the inhibition at 10 µM was 50 ± 2%. The inhibition at 50 µM in data set [2] (setting [7]) was 52 ± 4%.

In the case of `O=C(O)C1(C(F)CCCCOc2ccc(Cl)cc2)CO1` (single isomer, unassigned) [Example 4, 2-[5-(4-Chlorophenoxy)-1-fluoropentyl]-2-oxiranecarboxylic acid sodium salt], in data set [1] (setting [4]), the half-inhibitory concentration (IC50) was 500 nM.

Turning to `O=C(O)C1(C(F)CCCCCOc2ccc(Cl)cc2)CO1` (single isomer, unassigned) [Example 5, 2-[6-(4-Chlorophenoxy)-1-fluorohexyl]-2-oxiranecarboxylic acid sodium salt], in data set [1] (setting [4]), the IC50 came out at 520 nM.

On to `CCOC(=O)C1(CCCCCCOc2ccc(Cl)cc2)CO1` (stereo not drawn) [Compound A, 2-[6-(4-chlorophenoxy)hexyl]oxirane-2-carboxylic acid ethyl ester, reference compound], for which, in data set [1], the inhibition at 0.05 µM amounted to 9 ± 7%, the inhibition at 0.1 µM was 11 ± 6%, the inhibition at 0.5 µM is 60 ± 7% and the inhibition at 1 µM came out at 79 ± 2%. Moreover, in data set [1], the inhibition at 2 µM came to 82 ± 2%, the inhibition at 5 µM is 86 ± 3%, the inhibition at 10 µM was 83 ± 3% and the inhibition at 50 µM was 85 ± 2%. Moreover, the IC50 in data set [1] (setting [8]) was 310 nM. In data set [1] (setting [5]), the IC50 came out at 330 ± 40 nM. Further, in data set [2] (setting [6]), the inhibition at 0.05 µM was 5 ± 6%, the inhibition at 0.1 µM came out at 8 ± 7%, the inhibition at 0.5 µM came out at 36 ± 10% and the inhibition at 1 µM is 38 ± 15%. Moreover, in data set [2] (setting [6]), the inhibition at 2 µM stood at 51 ± 15%, the inhibition at 5 µM is 68 ± 11% and the inhibition at 10 µM came to 81 ± 1%. Also, the inhibition at 50 µM in data set [2] (setting [7]) was 84 ± 1%. The same compound yielded an IC50 in data set [2] (Table 1, heart mitochondria, ± SEM) of 250 nM. Further, in data set [2] (setting [9]), the inhibition at 50 µM came to 85 ± 2%.

In the case of `COC(=O)C1(C(F)(F)CCCCCOc2ccc(Cl)cc2)CO1` (stereo not drawn) [Example 7 (gem-difluoro compound), 2-[6-(4-Chlorophenoxy)-1,1-difluorohexyl]-2-oxiranecarboxylic acid methyl ester], in data set [1] (setting [8]), the IC50 was 350 nM. Besides, the inhibition at 50 µM in data set [2] (setting [9]) was 26 ± 4%.

On to `O=C(O)C1(C(F)(F)CCCCCOc2ccc(Cl)cc2)CO1` (stereo not drawn) [Example 8, 2-[6-(4-Chlorophenoxy)-1,1-difluorohexyl]-2-oxiranecarboxylic acid sodium salt], for which the IC50 in data set [1] (setting [8]) stood at 250 nM. The inhibition at 50 µM in data set [2] (setting [9]) turned out to be 24 ± 6%.

Turning to `CCCCCCCCCCCCCCC1(C(=O)OC)CO1` (stereo not drawn) [methyl ester of 2-tetradecylglycidate], in data set [3], the “cardiac effects from chronic administration, in words” value is given as “adverse cardiac effects”.
